For assay [1], the system named is Rattus norvegicus. The assay is described as follows: Compound was tested in vivo for 5-HTP accumulation in limbic system against reserpine-pretreated rats;P= significant partial reduction only at the highest dose tested (50). The format is functional, organism-based.
The test system of assay [2] is Rattus norvegicus. The experiment in a line: The Compound was tested in vivo for DOPA accumulation in hemispheres (cortex) against reserpine-pretreated rats;I= inactive at the highest dose tested (50). The format is functional, organism-based.
Assay [3] relates to Rattus norvegicus. The experiment in a line: The Compound was tested in vivo for DOPA accumulation in limbic system against reserpine-pretreated rats; P=significant partial reduction only at the highest dose tested (50). It counts as functional, organism-based.
Assay [4] relates to Rattus norvegicus. The assay is described as follows: Compound was tested in vivo for DOPA accumulation in corpus striatum against reserpine-pretreated rats;P= significant partial reduction only at the highest dose tested (50). It counts as functional, organism-based.
For assay [5], the system named is Rattus norvegicus. The experiment in a line: Compound was tested in vivo for 5-HTP accumulation in hemispheres (cortex) against reserpine-pretreated rats;I= inactive at the highest dose tested (50). It counts as functional, organism-based.
The subject of assay [6] is Rattus norvegicus. The assay is described as follows: Compound was tested in vivo for 5-HTP accumulation in corpus striatum against reserpine-pretreated rats;I= inactive at the highest dose tested (50). It counts as functional, organism-based.
Assay [7] relates to Rattus norvegicus. The experiment in a line: Compound was tested in vivo for DOPA accumulation in corpus striatum against reserpine-pretreated rats; I=inactive at the highest dose tested (12.5). It counts as functional, organism-based.
Assay [8] deals with T1, 5-hydroxytryptamine receptor 1A (Rattus norvegicus, UniProt P19327).
T1 sequence (P19327 whole entry): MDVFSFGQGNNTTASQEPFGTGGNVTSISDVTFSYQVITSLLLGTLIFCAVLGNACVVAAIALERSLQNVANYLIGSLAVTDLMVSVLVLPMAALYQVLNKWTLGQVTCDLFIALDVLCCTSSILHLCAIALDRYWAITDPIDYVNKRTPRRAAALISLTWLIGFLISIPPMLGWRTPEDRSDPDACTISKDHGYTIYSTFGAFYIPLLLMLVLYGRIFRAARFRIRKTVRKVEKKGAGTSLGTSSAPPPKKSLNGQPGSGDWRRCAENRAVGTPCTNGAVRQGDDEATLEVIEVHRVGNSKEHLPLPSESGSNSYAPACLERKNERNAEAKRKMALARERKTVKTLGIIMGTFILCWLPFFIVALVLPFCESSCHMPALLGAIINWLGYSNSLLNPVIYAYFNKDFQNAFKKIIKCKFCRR
The assay is described as follows: Binding affinity against 5-hydroxytryptamine 1A receptor from CHO-K1 cells, using [3H]8-OH-DPAT as the radioligand. The format is cell-based.

Assay [9] concerns the target T2, D(3) dopamine receptor (Rattus norvegicus, UniProt P19020). The experiment in a line: Compound was tested for binding affinity against Dopamine receptor D3 expressed in CHO-K1 cells, using [3H]spiperone as the radioligand; I= inactive at the highest dose tested (12.5). It counts as cell-based.
The species named for assay [10] is Rattus norvegicus. The experiment in a line: Compound was tested for binding affinity against D3 receptor expressed in CHO-K1 cells, using [3H]spiperone as the radioligand;I= inactive (less than 50% inhibition at 1 uM).
For assay [11], the system named is Rattus norvegicus. The experiment in a line: The Compound was tested in vivo for DOPA accumulation in limbic system against reserpine-pretreated rats; inactive at the highest dose tested (12.5). The format is functional, organism-based.
The target in assay [12] is 5-hydroxytryptamine receptor 1B (Homo sapiens, UniProt P28222). The assay is described as follows: Binding affinity against 5-hydroxytryptamine 1D receptor beta expressed in CHO-K1 cells, using [3H]5-HT as the radioligand. The format is cell-based.
The species entered for assay [13] is Rattus norvegicus. The assay is described as follows: Compound was tested for binding affinity against D2 receptor expressed in CHO-K1 cells, using [3H]U-86170 as the radioligand; I=inactive (less than 50% inhibition at 1 uM).
The test system of assay [14] is Rattus norvegicus. The experiment in a line: Compound was tested in vivo for 5-HTP accumulation in limbic system against reserpine-pretreated rats;I= inactive at the highest dose tested (12.5). It counts as functional, organism-based.
In assay [15] the target is T3, D(2) dopamine receptor (Rattus norvegicus, UniProt P61169). The conditions noted are these: cho-k1.
For assay [16], the system named is Rattus norvegicus. The experiment in a line: The Compound was tested in vivo for DOPA accumulation in limbic system against reserpine-pretreated rats;I= inactive at the highest dose tested (12.5). It counts as functional, organism-based.
Assay [17] deals with 5-hydroxytryptamine receptor 1D (Homo sapiens, UniProt P28221). The experiment in a line: Binding affinity against 5-hydroxytryptamine 1D receptor alpha expressed in CHO-K1 cells, using [3H]-5-HT as the radioligand. The format is cell-based.
The test system of assay [18] is Rattus norvegicus. The assay is described as follows: compound was tested in vivo for 5-HTP accumulation in hemispheres (cortex) against reserpine-pretreated rats; P=significant partial reduction only at the highest dose tested (20). The format is functional, organism-based.
The test system of assay [19] is Rattus norvegicus. The assay is described as follows: The compound was tested in vivo for DOPA accumulation in limbic system against reserpine-pretreated rats; P=significant partial reduction only at the highest dose tested (20). It counts as functional, organism-based.
Assay [20] concerns the target T2, D(3) dopamine receptor. The experiment in a line: The compound was tested in vitro for binding affinity against cloned mammalian Dopamine receptor D3 expressed in CHO cells by, using [3H]spiperone as radioligand. It counts as cell-based.
In assay [21] the target is T3, D(2) dopamine receptor. The assay is described as follows: Binding affinity against Dopamine receptor D2 expressed in CHO-K1 cells, using [3H]U-86170 as the radioligand. It counts as cell-based.
The subject of assay [22] is Rattus norvegicus. The assay is described as follows: compound was tested in vivo for DOPA accumulation in corpus striatum against reserpine-pretreated rats; P=significant partial reduction only at the highest dose tested (20). It counts as functional, organism-based.
Assay [23] deals with Rattus norvegicus. The assay is described as follows: The compound was tested in vivo for DOPA accumulation in hemispheres (cortex) against reserpine-pretreated rats; I= inactive at the highest dose tested (20). It counts as functional, organism-based.
Assay [24] concerns Rattus norvegicus. The experiment in a line: compound was tested in vivo for 5-HTP accumulation in corpus striatum against reserpine-pretreated rats, activity expressed as ED50; P=significant partial reduction only at the highest dose tested (20). The format is functional, organism-based.
The subject of assay [25] is Rattus norvegicus. The experiment in a line: compound was tested in vivo for 5-HTP accumulation in limbic system against reserpine-pretreated rats; P=significant partial reduction only at the highest dose tested (20). The format is functional, organism-based.
Assay [26] relates to Rattus norvegicus. The experiment in a line: Compound was tested in vivo for 5-HTP accumulation in limbic system against reserpine-pretreated rats;I=inactive at the highest dose tested (50). It counts as functional, organism-based.
Assay [27] concerns Rattus norvegicus. The experiment in a line: Compound was tested in vivo for DOPA accumulation in corpus striatum against reserpine-pretreated rats; P=significant partial reduction only at the highest dose tested (50). It counts as functional, organism-based.
The subject of assay [28] is Rattus norvegicus. The experiment in a line: The compound was tested in vivo for DOPA accumulation in limbic system against reserpine-pretreated rats; I=inactive at the highest dose tested. It counts as functional, organism-based.
The target in assay [29] is T2, D(3) dopamine receptor. The assay is described as follows: Binding affinity against Dopamine receptor D3 from CHO-K1 cells, using [3H]spiperone as the radioligand. It counts as cell-based. The conditions noted are these: read-out: Ki.
Assay [30] addresses T3, D(2) dopamine receptor. The experiment in a line: Binding affinity against Dopamine receptor D2 from CHO-K1 cells, using [3H]U-86,170 as the radioligand. The format is cell-based.
The test system of assay [31] is Rattus norvegicus. The experiment in a line: The compound was tested in vivo for DOPA accumulation in hemispheres (cortex) against reserpine-pretreated rats;I= inactive at the highest dose tested. The format is functional, organism-based.
The subject of assay [32] is Rattus norvegicus. The assay is described as follows: compound was tested in vivo for 5-HTP accumulation in corpus striatum against reserpine-pretreated rats, activity expressed as ED50;I= inactive at the highest dose tested. It counts as functional, organism-based.
Assay [33] has as its system Rattus norvegicus. The assay is described as follows: compound was tested in vivo for DOPA accumulation in corpus striatum against reserpine-pretreated rats;I= inactive at the highest dose tested. The format is functional, organism-based.
For assay [34], the system named is Rattus norvegicus. The assay is described as follows: The compound was tested in vivo for DOPA accumulation in limbic system against reserpine-pretreated rats;I= inactive at the highest dose tested. It counts as functional, organism-based.

Active and inactive are the calls of the source. The rule behind the calls is not given here.

The source of these data is ChEMBL document CHEMBL1128401, “Structure-activity relationships in the 8-amino-6,7,8,9-tetrahydro-3H-benz[e]indole ring system. 1. Effects of substituents in the aromatic system on serotonin and dopamine receptor subtypes” (J Med Chem, 1995).

T3 sequence (P61169 whole entry): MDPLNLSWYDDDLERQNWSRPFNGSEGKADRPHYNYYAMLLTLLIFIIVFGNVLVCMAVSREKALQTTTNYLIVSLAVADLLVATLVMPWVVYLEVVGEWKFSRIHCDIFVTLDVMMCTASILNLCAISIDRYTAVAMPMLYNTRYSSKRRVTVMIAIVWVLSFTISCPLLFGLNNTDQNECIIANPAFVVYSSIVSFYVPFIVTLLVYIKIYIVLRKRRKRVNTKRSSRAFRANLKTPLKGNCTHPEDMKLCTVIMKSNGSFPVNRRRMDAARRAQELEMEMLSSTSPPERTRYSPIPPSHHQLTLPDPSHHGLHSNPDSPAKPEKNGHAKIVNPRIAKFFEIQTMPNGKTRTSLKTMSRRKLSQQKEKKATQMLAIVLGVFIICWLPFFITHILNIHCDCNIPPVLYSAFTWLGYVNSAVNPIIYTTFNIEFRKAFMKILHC
Sequence of 5-hydroxytryptamine receptor 1D (P28221 whole entry): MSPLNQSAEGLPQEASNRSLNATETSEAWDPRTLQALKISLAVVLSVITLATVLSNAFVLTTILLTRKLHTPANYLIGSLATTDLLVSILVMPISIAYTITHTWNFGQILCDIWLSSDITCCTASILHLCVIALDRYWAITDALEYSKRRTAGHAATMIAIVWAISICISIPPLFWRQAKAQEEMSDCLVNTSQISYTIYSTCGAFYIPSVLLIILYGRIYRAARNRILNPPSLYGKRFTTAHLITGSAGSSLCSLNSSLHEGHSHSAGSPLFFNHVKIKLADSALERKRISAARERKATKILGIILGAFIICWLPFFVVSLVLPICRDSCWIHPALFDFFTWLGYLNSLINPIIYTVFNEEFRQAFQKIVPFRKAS
T2 sequence (P19020 whole entry): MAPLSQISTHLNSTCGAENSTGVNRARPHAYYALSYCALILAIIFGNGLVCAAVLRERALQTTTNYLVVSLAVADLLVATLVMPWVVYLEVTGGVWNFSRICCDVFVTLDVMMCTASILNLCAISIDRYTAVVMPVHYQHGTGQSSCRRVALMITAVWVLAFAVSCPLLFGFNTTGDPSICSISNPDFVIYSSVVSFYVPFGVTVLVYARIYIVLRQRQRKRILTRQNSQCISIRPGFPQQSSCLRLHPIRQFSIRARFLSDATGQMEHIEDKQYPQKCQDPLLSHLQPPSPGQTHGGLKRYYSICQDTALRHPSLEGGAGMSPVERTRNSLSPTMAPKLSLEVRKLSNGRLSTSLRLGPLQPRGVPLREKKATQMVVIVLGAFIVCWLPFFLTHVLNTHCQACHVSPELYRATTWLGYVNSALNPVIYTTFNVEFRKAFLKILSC
Sequence of 5-hydroxytryptamine receptor 1B (P28222 whole entry): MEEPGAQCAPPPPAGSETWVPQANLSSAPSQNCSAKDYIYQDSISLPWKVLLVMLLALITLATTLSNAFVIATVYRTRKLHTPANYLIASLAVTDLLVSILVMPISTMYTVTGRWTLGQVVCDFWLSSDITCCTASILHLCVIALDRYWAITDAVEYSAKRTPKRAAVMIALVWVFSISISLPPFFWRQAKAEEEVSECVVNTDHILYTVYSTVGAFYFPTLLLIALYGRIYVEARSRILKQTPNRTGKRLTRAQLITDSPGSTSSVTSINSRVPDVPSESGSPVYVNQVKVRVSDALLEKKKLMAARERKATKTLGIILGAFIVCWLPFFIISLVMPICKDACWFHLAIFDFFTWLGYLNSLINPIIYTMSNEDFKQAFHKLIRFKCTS

Take `CCCN(CCC)C1CCc2ccc3cc[nH]c3c2C1` (centres undefined): the ED50 result in the assay with Rattus norvegicus [1], with Rattus norvegicus [3] and in the assay with Rattus norvegicus [4] was “Weak activity” in each case. For the same molecule, the ED50 entry with Rattus norvegicus [2], with Rattus norvegicus [5] and in the assay with Rattus norvegicus [6] was “inactive” in each case.
The term Ki denotes the dissociation constant of the complex between target and ligand, obtained from inhibition or displacement. With `CCCN(CCC)C1CCc2ccc3[nH]cc(CN(C)C)c3c2C1` (centres undefined), the ED50 result in the assay with Rattus norvegicus [7], in the assay with Rattus norvegicus [11], in the assay on Rattus norvegicus [14] and with Rattus norvegicus [16] was “inactive” in each case. For the same molecule, the Ki was 113 nM in [8]; “Not Active” at D(3) dopamine receptor [9]; “Not Active” in assay [12] (cho-k1); “Not Active” on D(2) dopamine receptor [15]; “Not Active” in [17] (cho-k1). Also, the Ki result in the assay filed under Rattus norvegicus [10] and in the assay listed under Rattus norvegicus [13] was “inactive” in each case.
As for `CCCN(CCC)C1CCc2cc(F)c3c(c(C=O)cn3C)c2C1` (centres undefined), the inhibition constant Ki was 28 nM in assay [8]; 572 nM on D(3) dopamine receptor [20]; 1030 nM at D(2) dopamine receptor [21]; 618 nM in [12] (read-out: Ki); 419 nM in assay [17] (read-out: Ki). Also, the ED50 result in the assay with Rattus norvegicus [18], in the assay on Rattus norvegicus [19], in the assay on Rattus norvegicus [22], in the assay on Rattus norvegicus [24] and with Rattus norvegicus [25] was “Weak activity” each time. In addition, in the assay with Rattus norvegicus [23], the ED50 entry was “inactive”.
On to `CCCN(CCC)C1CCc2ccc3c(c2C1)N(C=O)CC3` (centres undefined), for which the ED50 entry in the assay on Rattus norvegicus [2], in the assay with Rattus norvegicus [26], in the assay with Rattus norvegicus [5] and in the assay with Rattus norvegicus [6] was “inactive” in each case. For the same molecule, the ED50 result in the assay on Rattus norvegicus [3] and in the assay with Rattus norvegicus [27] was “Weak activity” in each case.
`CCCN(CCC)C1CCc2ccc3c(c(C=O)cn3C)c2C1` (centres undefined): the Ki in assay [8] came to 40 nM; on D(3) dopamine receptor [29], 1010 nM; in [12] (read-out: Ki), 439 nM; on D(2) dopamine receptor [30], 510 nM; in assay [17] (read-out: Ki) it was 334 nM. The ED50 entry in the assay with Rattus norvegicus [28], in the assay with Rattus norvegicus [31] and with Rattus norvegicus [32] was “inactive” throughout.
Turning to `CCCN(CCC)[C@@H]1CCc2ccc3[nH]cc(C=O)c3c2C1`, the ED50 entry in the assay on Rattus norvegicus [33], in the assay on Rattus norvegicus [34] and in the assay with Rattus norvegicus [31] was “inactive” in each case. For the same molecule, the Ki on D(3) dopamine receptor [29] was 51 nM; in assay [12] (read-out: Ki), 210 nM; at D(2) dopamine receptor [30] it was 17 nM; in [17] (read-out: Ki), 31 nM.
